14 substances from patent US12612622B2, “Targeted mutagenesis using base editors” (Qi Biodesign Biotechnology Company Limited, priority 2018, dated 2026) can be followed below.

In this data set the test system is OsACCase gene. Kind of data set: Base editing (pZRH-PBE + individual sgRNAs) of OsACCase functional domain in transgenic M0 rice plants. It is filed as in vivo. Particulars: for Frequency of indel (%) / Frequency of substitution (%) / No. of WT / No. of indel / No. of substitution: transgenic M0 plants; for No. of WT / No. of indel / No. of substitution: per sgRNA target. The text has this:
For individual cloning, the following method is used. APOBEC1, partial nCas9 and UGI sequences (SEQ ID NO: 129) without BsaI were synthesized commercially (GenScript, Nanjing, China) and cloned into the pUC57 (SEQ ID NO: 130) as intermediate vector. […] The full length APOBEC1-nCas9-UGI was excised using XmaJI and SacI, then was subcloned into pHUE411 that had been digested using the same two enzymes. The resultant vector pZRH-PBE (SEQ ID NO: 133) was used to construct sgRNA expression plasmids using restriction enzyme site BsaI.

The mark [1] stands for this setting: edited allele with the substitution of the same table line.

As for “R40: sgRNA in pZRH-PBE; OsACCase target site CCTATTATTCTTACAGGCTATTC (SEQ ID NO: 127) (chemistry not fully specified; the letters are possibly those of the target site)”, the “Frequency of indel (%)” value is 6.7%, the “Frequency of substitution (%)” value is reported as 13.3%, the “No. of WT” value stood at 12 and the No. of indel was 1. Besides, the No. of substitution was determined as 2. Moreover, under setting [1], the No. of alleles stood at 1. Moreover, the No. of alleles (unedited target site sequence) was 1.
As for “R31: sgRNA in pZRH-PBE; OsACCase target site GACTGCAAAAGGCAATGTTCTGG (SEQ ID NO: 102) (expressed or natural sequence; target site or template, no part of the molecule)”, the “Frequency of indel (%)” value was 0.0%, the “Frequency of substitution (%)” value is listed as 5.9%, the “No. of WT” value is listed as 16 and the No. of indel is listed as 0. The No. of substitution stood at 1. Further, under setting [1], the No. of alleles amounted to 1. For the same substance, the No. of alleles (unedited target site sequence) came out at 1.
Consider “R25: sgRNA in pZRH-PBE; OsACCase target site ACTTCCAGTAACAACACCGTTGG (SEQ ID NO: 85) (expressed or natural sequence; the letters are possibly those of the target site)”, for which the “Frequency of indel (%)” value was 0.0%, the “Frequency of substitution (%)” value came to 40.0%, the “No. of WT” value amounted to 3 and the No. of indel came out at 0. In addition, the No. of substitution was determined as 2. For the same substance, the No. of alleles (edited allele with the substitution of the same table line, edited allele (SEQ ID NO: 86)) is on record as 2. Further, the No. of alleles (edited allele with the substitution of the same table line, edited allele (SEQ ID NO: 87)) worked out at 1. The No. of alleles (unedited target site sequence) came to 1.
For the substance “R22: sgRNA in pZRH-PBE; OsACCase target site ACTGTTTCAGATGACCTTGAAGG (SEQ ID NO: 79) (expressed or natural sequence; the letters are possibly those of the target site)”, the “Frequency of indel (%)” value stood at 0.0%, the “Frequency of substitution (%)” value is on record as 18.8%, the “No. of WT” value was determined as 13 and the No. of indel worked out at 0. Also, the No. of substitution stood at 3. In addition, the No. of alleles under setting [1] came to 4. In addition, under “unedited target site sequence”, the No. of alleles is 2.
In the case of “R2: sgRNA in pZRH-PBE; OsACCase target site CCGGTGCATACAGCGTCTTGACC (SEQ ID NO: 8) (expressed or natural sequence; target site or template, no part of the molecule)”, the “Frequency of indel (%)” value stood at 0%, the “Frequency of substitution (%)” value was found to be 80%, the “No. of WT” value is on record as 5 and the No. of indel worked out at 0. For the same substance, the No. of substitution is reported as 20. For the same substance, where the note is “unedited target site sequence”, the No. of alleles was determined as 6.
For the substance “R4: sgRNA in pZRH-PBE; OsACCase target site TCTGCACTGAACAAGCTTCTTGG (SEQ ID NO: 11) (expressed or natural sequence; target site or template, no part of the molecule)”, the “Frequency of indel (%)” value is recorded as 3.1%, the “Frequency of substitution (%)” value stood at 31.3%, the “No. of WT” value is reported as 24 and the No. of indel is 2. The No. of substitution came out at 6. Further, the No. of alleles (unedited target site sequence) is 6.
For the substance “R23: sgRNA in pZRH-PBE; OsACCase target site GCGTTTCTAATATATTGAGGTGG (SEQ ID NO: 81) (expressed or natural sequence; target site or template, no part of the molecule)”, the “Frequency of indel (%)” value came to 0.0%, the “Frequency of substitution (%)” value is 22.2%, the “No. of WT” value is on record as 21 and the No. of indel amounted to 0. Moreover, the No. of substitution was 6. Besides, the No. of alleles under setting [1] was 9. Where the note is “unedited target site sequence”, the No. of alleles came to 3.
In the case of “R29: sgRNA in pZRH-PBE; OsACCase target site CAAACTATCCCTGCTGACCCTGG (SEQ ID NO: 94) (expressed or natural sequence; target site or template, no part of the molecule)”, the “Frequency of indel (%)” value is reported as 12.0%, the “Frequency of substitution (%)” value stood at 60.0%, the “No. of WT” value is recorded as 7 and the No. of indel came out at 3. Further, the No. of substitution is given as 15. The No. of alleles (unedited target site sequence) amounted to 8.
As for “R38: sgRNA in pZRH-PBE; OsACCase target site CCTGTTGCATACATTCCTGAGAA (SEQ ID NO: 122) (expressed or natural sequence; target site or template, no part of the molecule)”, the “Frequency of indel (%)” value is reported as 28.6%, the “Frequency of substitution (%)” value is recorded as 35.7%, the “No. of WT” value was found to be 5 and the No. of indel is on record as 4. For the same substance, the No. of substitution came to 5. Further, under “unedited target site sequence”, the No. of alleles is listed as 4.
Consider “R8: sgRNA in pZRH-PBE; OsACCase target site TTCCTCGTGCTGGACAAGTGTGG (SEQ ID NO: 32) (expressed or natural sequence; target site or template, no part of the molecule)”, for which the “Frequency of indel (%)” value came out at 10.5%, the “Frequency of substitution (%)” value turned out to be 59.6%, the “No. of WT” value is listed as 17 and the No. of indel is 6. Besides, the No. of substitution came to 34. Further, the No. of alleles (unedited target site sequence) is 9.
As to “R7: sgRNA in pZRH-PBE; OsACCase target site CCCTGCTGACCCTGGTCAGCTTG (SEQ ID NO: 27) (expressed or natural sequence; target site or template, no part of the molecule)”, the “Frequency of indel (%)” value worked out at 5.9%, the “Frequency of substitution (%)” value stood at 58.8%, the “No. of WT” value stood at 6 and the No. of indel was 1. In addition, the No. of substitution was 10. Besides, the No. of alleles under setting [1] was 1. Moreover, the No. of alleles (unedited target site sequence) is on record as 4.
For the substance “R19: sgRNA in pZRH-PBE; OsACCase target site TGCTTATTCTAGGGCATATAAGG (SEQ ID NO: 71) (expressed or natural sequence; target site or template, no part of the molecule)”, the “Frequency of indel (%)” value worked out at 0.0%, the “Frequency of substitution (%)” value was 6.9%, the “No. of WT” value is listed as 27 and the No. of indel was 0. Further, the No. of substitution amounted to 2. Also, the No. of alleles under setting [1] is on record as 1. Also, under “unedited target site sequence”, the No. of alleles is listed as 1.
For “R35: sgRNA in pZRH-PBE; OsACCase target site CCAAGGGAAATGGTTAGGTGCTA (SEQ ID NO: 113) (guide CCAAGGGAAATGGTTAGGTGGTA; sgRNA expressed from vector pZRH-PBE, further chemistry not given here; the letters are possibly those of the target site)”, the “Frequency of indel (%)” value is recorded as 0.0%, the “Frequency of substitution (%)” value is 12.5%, the “No. of WT” value was found to be 7 and the No. of indel worked out at 0. Besides, the No. of substitution came to 1. The No. of alleles under setting [1] is recorded as 2. Where the note is “unedited target site sequence”, the No. of alleles is reported as 0.
For “R5: sgRNA in pZRH-PBE; OsACCase target site CCACATGCAGTTGGGTGGTCCCA (SEQ ID NO: 15) (expressed or natural sequence; target site or template, no part of the molecule)”, the “Frequency of indel (%)” value is 0.0%, the “Frequency of substitution (%)” value stood at 65.4%, the “No. of WT” value amounted to 18 and the No. of indel is 0. The No. of substitution worked out at 34. The No. of alleles (unedited target site sequence) was 12.
